Target: T1, Q46 protein aggregates (Homo sapiens, UniProt P42858, INS38QQQQQQQQQQQQQQQQQQQQQQQQQ)
T1 construct: fused on or other part: GST at the N-terminus, cut off by thrombin before the test to start aggregation
Assay: Q46 Radioligand Binding Assay (RBA)
Conditions: displacement of 10 nM [3H3]MK-3328 from 5 μM aggregated Q46 protein, 60 minutes at 37° C.
Protocol: Q46 Radioligand Binding Assay
For radioligand binding assays (RBA) GST-Q46 protein was generated based on a previous publication (Scherzinger et al. Cell, Vol. 90, 549-558, Aug. 8, 1997). For experiments 33 μM GST-Q46 was incubated with 150 μg/mL thrombin in assay buffer (150 mM NaCl, 50 mM Tris pH 8.0) and 2 mM CaCl2 for 16 hours at 37° C. Aggregated Q46 was pelleted by centrifugation for 5 minutes at 13,000 rpm in a bench top centrifuge and re-dissolved in the same volume of assay buffer. Test compounds were prepared by titration in DMSO at 11 concentrations from 33 μM to 1 nM. For the RBA, Q46 protein aggregates and test compounds were pre-incubated in assay buffer for 20 minutes at room temperature, in 140 μL/well in a 96-well plate (pp, round bottom). Then, ligand was added in 10 μL/well and incubated for 60 minutes at 37° C. Final assay concentrations were […] test compound, 5 μM Q46 protein (equivalent monomer concentration) and 10 nM ligand [^3H3]MK-3328 (Harrision et al., ACS Med. Chem. Lett., 2 (2011), pp 498-502). Samples were transferred onto GF/B filter plates and washed 2× with 200 μL PBS using a Filtermate Harvester. After drying filter plates for 1 hour at 37° C., the back of the plates was sealed with foil and 30 μl/well scintillation fluid (Packard MicroScint 40) was added, incubated for […] 15 minutes in the dark and counted in a TopCount reader. For analysis, replicate data from independent assay plates were normalized towards 0% and 100% inhibition using control wells of vehicle (0% inhibition) and 3 μM unlabelled MK-3328 (100% inhibition). IC50 values were determined with a sigmoidal inhibition model with four variables (top, bottom, slope, IC50) in a global fit using the normalized replicate data.

T1 sequence (P42858 with tags, fused parts or gaps with the stated changes): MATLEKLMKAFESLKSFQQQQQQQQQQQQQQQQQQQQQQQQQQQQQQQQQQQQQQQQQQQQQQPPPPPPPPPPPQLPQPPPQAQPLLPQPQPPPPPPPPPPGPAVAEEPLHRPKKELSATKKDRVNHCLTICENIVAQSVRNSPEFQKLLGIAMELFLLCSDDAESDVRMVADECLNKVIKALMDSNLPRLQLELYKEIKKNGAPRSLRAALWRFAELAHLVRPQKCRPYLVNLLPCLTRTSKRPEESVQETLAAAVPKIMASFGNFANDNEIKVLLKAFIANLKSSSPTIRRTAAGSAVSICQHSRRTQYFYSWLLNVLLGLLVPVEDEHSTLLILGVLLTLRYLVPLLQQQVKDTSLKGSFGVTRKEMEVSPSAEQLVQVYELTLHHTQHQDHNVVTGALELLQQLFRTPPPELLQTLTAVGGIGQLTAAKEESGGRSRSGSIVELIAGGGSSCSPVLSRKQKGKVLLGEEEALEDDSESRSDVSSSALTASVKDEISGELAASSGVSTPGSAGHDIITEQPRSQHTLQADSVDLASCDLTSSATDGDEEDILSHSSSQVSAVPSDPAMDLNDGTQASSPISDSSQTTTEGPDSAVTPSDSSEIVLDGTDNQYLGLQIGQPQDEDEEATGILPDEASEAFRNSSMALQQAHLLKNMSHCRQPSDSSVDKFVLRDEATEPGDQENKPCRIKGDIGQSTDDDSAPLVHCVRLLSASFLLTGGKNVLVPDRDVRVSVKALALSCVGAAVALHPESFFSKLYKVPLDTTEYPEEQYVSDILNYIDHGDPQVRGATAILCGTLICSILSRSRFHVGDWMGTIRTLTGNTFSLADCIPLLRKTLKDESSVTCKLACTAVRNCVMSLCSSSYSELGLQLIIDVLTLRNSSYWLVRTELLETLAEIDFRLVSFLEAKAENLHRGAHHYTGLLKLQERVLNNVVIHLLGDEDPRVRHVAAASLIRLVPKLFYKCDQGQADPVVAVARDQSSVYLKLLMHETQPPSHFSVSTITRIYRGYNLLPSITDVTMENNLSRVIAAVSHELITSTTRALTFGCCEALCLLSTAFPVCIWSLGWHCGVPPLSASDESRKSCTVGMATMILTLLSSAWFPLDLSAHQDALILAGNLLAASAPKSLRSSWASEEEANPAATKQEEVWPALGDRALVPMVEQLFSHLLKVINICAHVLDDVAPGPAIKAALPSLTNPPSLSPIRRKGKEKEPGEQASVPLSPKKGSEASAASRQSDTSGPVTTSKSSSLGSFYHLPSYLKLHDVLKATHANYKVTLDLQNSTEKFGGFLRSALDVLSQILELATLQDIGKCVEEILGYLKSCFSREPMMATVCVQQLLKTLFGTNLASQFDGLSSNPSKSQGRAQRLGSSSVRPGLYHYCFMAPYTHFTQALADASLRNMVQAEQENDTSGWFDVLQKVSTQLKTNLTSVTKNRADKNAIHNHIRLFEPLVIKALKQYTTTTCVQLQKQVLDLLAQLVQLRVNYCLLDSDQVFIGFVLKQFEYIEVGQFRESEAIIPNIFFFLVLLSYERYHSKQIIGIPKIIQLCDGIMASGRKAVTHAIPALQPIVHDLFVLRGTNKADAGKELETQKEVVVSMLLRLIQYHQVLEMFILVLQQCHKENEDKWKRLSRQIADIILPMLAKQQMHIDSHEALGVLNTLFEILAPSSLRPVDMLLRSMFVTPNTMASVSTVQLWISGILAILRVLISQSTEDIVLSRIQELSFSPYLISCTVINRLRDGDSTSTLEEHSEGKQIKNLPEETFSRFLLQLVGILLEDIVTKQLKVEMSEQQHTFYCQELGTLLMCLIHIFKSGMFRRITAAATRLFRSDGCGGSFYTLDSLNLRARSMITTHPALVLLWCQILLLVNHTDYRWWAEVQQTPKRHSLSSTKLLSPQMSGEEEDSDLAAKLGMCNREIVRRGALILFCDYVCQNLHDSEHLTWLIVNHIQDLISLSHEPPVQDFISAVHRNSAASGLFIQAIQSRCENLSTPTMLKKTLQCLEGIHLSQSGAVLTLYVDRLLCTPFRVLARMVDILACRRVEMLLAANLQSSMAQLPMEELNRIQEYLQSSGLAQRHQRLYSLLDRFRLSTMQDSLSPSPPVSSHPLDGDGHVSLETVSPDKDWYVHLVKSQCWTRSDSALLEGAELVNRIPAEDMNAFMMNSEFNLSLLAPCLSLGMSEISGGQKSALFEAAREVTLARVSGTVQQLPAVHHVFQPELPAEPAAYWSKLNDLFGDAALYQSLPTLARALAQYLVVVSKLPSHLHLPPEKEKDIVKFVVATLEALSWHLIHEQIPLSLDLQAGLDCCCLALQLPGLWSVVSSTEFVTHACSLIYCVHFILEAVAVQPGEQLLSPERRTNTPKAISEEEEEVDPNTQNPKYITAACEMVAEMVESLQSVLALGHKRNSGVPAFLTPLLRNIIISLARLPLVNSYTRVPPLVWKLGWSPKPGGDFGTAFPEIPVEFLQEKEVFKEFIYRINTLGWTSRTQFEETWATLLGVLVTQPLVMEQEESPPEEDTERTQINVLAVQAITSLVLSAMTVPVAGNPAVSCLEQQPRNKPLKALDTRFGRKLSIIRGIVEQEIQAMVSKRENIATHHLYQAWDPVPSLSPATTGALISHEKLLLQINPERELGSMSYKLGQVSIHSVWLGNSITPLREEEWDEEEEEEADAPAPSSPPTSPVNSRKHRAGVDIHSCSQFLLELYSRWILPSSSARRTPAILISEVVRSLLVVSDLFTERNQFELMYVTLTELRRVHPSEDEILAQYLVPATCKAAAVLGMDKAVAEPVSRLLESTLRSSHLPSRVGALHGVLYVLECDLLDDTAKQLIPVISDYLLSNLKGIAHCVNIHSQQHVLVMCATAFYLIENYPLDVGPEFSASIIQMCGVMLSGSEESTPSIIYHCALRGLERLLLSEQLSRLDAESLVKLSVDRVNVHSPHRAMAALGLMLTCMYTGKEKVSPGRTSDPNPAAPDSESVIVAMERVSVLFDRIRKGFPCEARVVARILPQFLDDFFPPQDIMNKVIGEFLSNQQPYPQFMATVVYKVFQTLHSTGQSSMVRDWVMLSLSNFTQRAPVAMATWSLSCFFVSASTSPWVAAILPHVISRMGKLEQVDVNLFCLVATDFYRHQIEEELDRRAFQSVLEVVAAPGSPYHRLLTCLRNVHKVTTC

SMILES: CNc1c(-c2ccc3occc3c2)nc2cc(C#N)ccn12 [2-(1-benzofuran-5-yl)-3-(methylamino)imidazo[1,2-a]pyridine-7-carbonitrile]
- IC50: 100 to 500 nM

SMILES: CNc1c(-c2ccc3c(c2)OCCO3)nc2cc(C#N)ccn12 [2-(2,3-dihydro-1,4-benzodioxin-6-yl)-3-(methylamino)imidazo[1,2-a]pyridine-7-carbonitrile]
- IC50: 100 to 500 nM

SMILES: CNc1c(-c2ccc(C#N)cc2)nc2cc(C#N)ccn12 [2-(4-cyanophenyl)-3-(methylamino)imidazo[1,2-a]pyridine-7-carbonitrile]
- IC50: < 100 nM

SMILES: CNc1c(-c2ccc(OC)cc2)nc2cc(C#N)ccn12 [2-(4-methoxyphenyl)-3-(methylamino)imidazo[1,2-a]pyridine-7-carbonitrile]
- IC50: < 100 nM

SMILES: CNc1c(-c2ccc(OCC3=CSC4=NCCN34)cc2)nc2cc(C#N)ccn12 [2-(4-{5H,6H-imidazo[2,1-b][1,3]thiazol-3-ylmethoxy}phenyl)-3-(methylamino)imidazo[1,2-a]pyridine-7-carbonitrile]
- IC50: < 100 nM

SMILES: CNc1c(-c2ccc(NCc3ccc(OC)cn3)cc2)nc2cc(C#N)ccn12 [2-(4-{[(5-methoxypyridin-2-yl)methyl]amino}phenyl)-3-(methylamino)imidazo[1,2-a]pyridine-7-carbonitrile]
- IC50: < 100 nM

SMILES: CNc1c(-c2cc3cc(Br)ccc3o2)nc2cc(C#N)ccn12 [2-(5-bromo-1-benzofuran-2-yl)-3-(methylamino)imidazo[1,2-a]pyridine-7-carbonitrile]
- IC50: < 100 nM

SMILES: CNc1c(-c2ccc(Br)o2)nc2cc(C#N)ccn12 [2-(5-bromofuran-2-yl)-3-(methylamino)imidazo[1,2-a]pyridine-7-carbonitrile]
- IC50: 100 to 500 nM

SMILES: CNc1c(-c2cc3cc(F)ccc3o2)nc2cc(C#N)ccn12 [2-(5-fluoro-1-benzofuran-2-yl)-3-(methylamino)imidazo[1,2-a]pyridine-7-carbonitrile]
- IC50: < 100 nM

SMILES: CNc1c(-c2cc3cc(F)ccc3o2)nc2ccccn12 [2-(5-fluoro-1-benzofuran-2-yl)-N-methylimidazo[1,2-a]pyridin-3-amine]
- IC50: > 500 nM

SMILES: CNc1c(-c2cc3cc(O)ccc3o2)nc2cc(C#N)ccn12 [2-(5-hydroxy-1-benzofuran-2-yl)-3-(methylamino)imidazo[1,2-a]pyridine-7-carbonitrile]
- IC50: < 100 nM

SMILES: CNc1c(-c2nc3cc(OC)ccc3o2)nc2cc(C#N)ccn12 [2-(5-methoxy-1,3-benzoxazol-2-yl)-3-(methylamino)imidazo[1,2-a]pyridine-7-carbonitrile]
- IC50: < 100 nM

SMILES: COCc1c(-c2cc3cc(OC)ccc3o2)nc2cc(C#N)ccn12 [2-(5-methoxy-1-benzofuran-2-yl)-3-(methoxymethyl)imidazo[1,2-a]pyridine-7-carbonitrile]
- IC50: < 100 nM

SMILES: CNc1c(-c2cc3cc(OC)ccc3o2)nc2ccc(C#N)cn12 [2-(5-methoxy-1-benzofuran-2-yl)-3-(methylamino)imidazo[1,2-a]pyridine-6-carbonitrile]
- IC50: < 100 nM

SMILES: CNc1c(-c2cc3cc(OC)ccc3o2)nc2cc(C#N)ccn12 [2-(5-methoxy-1-benzofuran-2-yl)-3-(methylamino)imidazo[1,2-a]pyridine-7-carbonitrile]
- IC50: < 100 nM

SMILES: COCCNc1c(-c2cc3cc(OC)ccc3o2)nc2cc(C#N)ccn12 [2-(5-methoxy-1-benzofuran-2-yl)-3-[(2-methoxyethyl)amino]imidazo[1,2-a]pyridine-7-carbonitrile]
- IC50: < 100 nM

SMILES: COCCNc1c(-c2cc3cc(OC)ccc3o2)nc2ccccn12 [2-(5-methoxy-1-benzofuran-2-yl)-N-(2-methoxyethyl)imidazo[1,2-a]pyridin-3-amine]
- IC50: 100 to 500 nM

SMILES: CNc1c(-c2cc3cc(OC)ccc3o2)nc2cc(C#C[Si](C)(C)C)ccn12 [2-(5-methoxy-1-benzofuran-2-yl)-N-methyl-7-[2-(trimethylsilyl)ethynyl]imidazo[1,2-a]pyridin-3-amine]
- IC50: < 100 nM

SMILES: CNc1c(-c2cc3cc(OC)ccc3o2)nc2ccccn12 [2-(5-methoxy-1-benzofuran-2-yl)-N-methylimidazo[1,2-a]pyridin-3-amine]
- IC50: 100 to 500 nM

SMILES: COc1ccc2oc(-c3cn4ccc(C#N)cc4n3)cc2c1 [2-(5-methoxy-1-benzofuran-2-yl)imidazo[1,2-a]pyridine-7-carbonitrile]
- IC50: < 100 nM

SMILES: CNc1c(-c2nc3cc(OC)ccc3n2C)nc2cc(C#N)ccn12 [2-(5-methoxy-1-methyl-1H-1,3-benzodiazol-2-yl)-3-(methylamino)imidazo[1,2-a]pyridine-7-carbonitrile]
- IC50: < 100 nM

SMILES: CNc1c(-c2nc3cc(OC)ccc3[nH]2)nc2cc(C#N)ccn12 [2-(5-methoxy-1H-1,3-benzodiazol-2-yl)-3-(methylamino)imidazo[1,2-a]pyridine-7-carbonitrile]
- IC50: < 100 nM

SMILES: CNc1c(-c2nc3ccc(OC)cc3s2)nc2cc(C#N)ccn12 [2-(6-methoxy-1,3-benzothiazol-2-yl)-3-(methylamino)imidazo[1,2-a]pyridine-7-carbonitrile]
- IC50: < 100 nM

SMILES: CNc1c(-c2cc3ccc(OC)cc3o2)nc2cc(C#N)ccn12 [2-(6-methoxy-1-benzofuran-2-yl)-3-(methylamino)imidazo[1,2-a]pyridine-7-carbonitrile]
- IC50: < 100 nM

SMILES: CNc1c(-c2nc3ccc(OC)cc3n2C)nc2cc(C#N)ccn12 [2-(6-methoxy-1-methyl-1H-1,3-benzodiazol-2-yl)-3-(methylamino)imidazo[1,2-a]pyridine-7-carbonitrile]
- IC50: < 100 nM

SMILES: CNc1c(-c2cc3cc(O)ccc3o2)nc2ccc(F)cn12 [2-[6-fluoro-3-(methylamino)imidazo[1,2-a]pyridin-2-yl]-1-benzofuran-5-ol]
- IC50: 100 to 500 nM

SMILES: CNc1c(-c2cc3cc(O)ccc3o2)nc2cc(F)ccn12 [2-[7-fluoro-3-(methylamino)imidazo[1,2-a]pyridin-2-yl]-1-benzofuran-5-ol]
- IC50: < 100 nM

SMILES: CNc1c(/C=C/c2ccc(OC)cc2)nc2cc(C#N)ccn12 [2-[(E)-2-(4-methoxyphenyl)ethenyl]-3-(methylamino)imidazo[1,2-a]pyridine-7-carbonitrile]
- IC50: < 100 nM

SMILES: OCCNc1c(-c2cc3cc(O)ccc3o2)nc2ccccn12 [2-{3-[(2-hydroxyethyl)amino]imidazo[1,2-a]pyridin-2-yl}-1-benzofuran-5-ol]
- IC50: 100 to 500 nM

SMILES: CNc1c(-c2cccc(OCc3cnc(OC)cn3)c2)nc2cc(C#N)ccn12 [2-{3-[(5-methoxypyrazin-2-yl)methoxy]phenyl}-3-(methylamino)imidazo[1,2-a]pyridine-7-carbonitrile]
- IC50: < 100 nM

SMILES: CNc1c(-c2ccc(OCc3cnc(OC)cn3)cc2)nc2cc(C#N)ccn12 [2-{4-[(5-methoxypyrazin-2-yl)methoxy]phenyl}-3-(methylamino)imidazo[1,2-a]pyridine-7-carbonitrile]
- IC50: < 100 nM

SMILES: CNc1c(-c2cc3cc(OCCN(C)C)ccc3o2)nc2cc(C#N)ccn12 [2-{5-[2-(dimethylamino)ethoxy]-1-benzofuran-2-yl}-3-(methylamino)imidazo[1,2-a]pyridine-7-carbonitrile]
- IC50: 100 to 500 nM

SMILES: CNc1c(-c2ccc(OCc3cnc(OC)cn3)cn2)nc2cc(C#N)ccn12 [2-{5-[(5-methoxypyrazin-2-yl)methoxy]pyridin-2-yl}-3-(methylamino)imidazo[1,2-a]pyridine-7-carbonitrile]
- IC50: < 100 nM
